How the values were obtained:
[1] = system: Interleukin-2 (IL-2) production/release in Jurkat T cells; assay: Jurkat IL-2 Production Assay (PHA-stimulated, IL-2 AlphaLisa); type: cell-based; conditions: Homo sapiens, PHA 15 μg/ml, 22 h, inhibition of IL-2 production
Method in brief: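 Jurkat E6-1 cells (5*10^5/well, DMEM/F12 with 10% FCS) pretreated 30 min with compound, then stimulated 22 h with 15 μg/ml PHA at 37 °C. IC50 from 8-point 1:3.16 dilution starting at 10 μM.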

CRAC channel = molecular target: T1, CRAC channel (Homo sapiens, UniProt Q96D31); assay: HEK Calcium Influx Assay (FLIPR), inhibition of store-operated Ca2+ entry after thapsigargin store depletion; type: cell-based; conditions: 10 μM compound, HEK293 cells, read-out: % inhib. [@ 10 μM] FLIPR
T1 construct: endogenous in cells; host or cells: HEK293 (ECACC), untransfected
T1 sequence (Q96D31 whole entry): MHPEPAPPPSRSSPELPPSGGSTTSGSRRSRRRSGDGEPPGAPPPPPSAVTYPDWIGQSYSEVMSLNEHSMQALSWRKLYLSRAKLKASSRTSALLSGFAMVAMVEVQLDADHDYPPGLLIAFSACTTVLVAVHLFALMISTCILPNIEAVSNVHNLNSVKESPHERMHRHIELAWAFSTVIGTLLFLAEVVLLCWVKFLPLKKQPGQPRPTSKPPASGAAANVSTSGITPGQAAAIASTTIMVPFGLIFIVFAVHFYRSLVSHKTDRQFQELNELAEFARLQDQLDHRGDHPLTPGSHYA
Method in brief: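 HEK293 cells loaded with Calcium-4 dye in Ca2+-free HBS (pH 7.4), stores depleted with 2 μM thapsigargin for 10 min (100 μM EGTA); after 3 mM CaCl2 re-addition and 15 min steady-state, compounds added and FLIPR signal averaged 9.5–10 min post-dose. IC50 from 8-point 1:3.16 dilutions from 10 μM, normalised to DMSO and non-depleted wells.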

Row | SMILES | IC50 [1] [µM] | inhibition at 10 µM (CRAC channel) [%]
1 | Cc1cc(C#N)c(F)cc1N1CCc2[nH]c(-c3c(F)cccc3F)cc2C1 [Example 67, 4-[2-(2,6-Difluoro-phenyl)-4,5,6,7-tetrahydro-1H-pyrrolo[3,2-c]pyridin-5-yl]-2-fluoro-5-methyl-benzonitrile] | 0.5 to 1 | < 50
2 | Cc1cc(S(=O)(=O)N2CCOCC2)ccc1N1CCc2[nH]c(-c3c(F)cccc3F)cc2C1 [Example 117, 4-[[4-[2-(2,6-Difluoro-phenyl)-4,5,6,7-tetrahydro-1H-pyrrolo[3,2-c]pyridin-5-yl]-3-methyl-phenyl]sulfonyl]-morpholine] | 0.5 to 1 | > 70
3 | CNS(=O)(=O)c1ccc(N2CCc3[nH]c(-c4c(F)cccc4F)cc3C2)c(C)c1 [Example 114, 4-[2-(2,6-Difluoro-phenyl)-4,5,6,7-tetrahydro-1H-pyrrolo[3,2-c]pyridin-5-yl]-N,3-dimethyl-benzenesulfonic acid amide] | < 0.5 | < 50
4 | Cc1cc(N(C)S(C)(=O)=O)ccc1N1CCc2[nH]c(-c3c(F)cccc3F)cc2C1 [Example 132, N-[4-[2-(2,6-Difluoro-phenyl)-4,5,6,7-tetrahydro-1H-pyrrolo[3,2-c]pyridin-5-yl]-3-methyl-phenyl]-N-methyl-methanesulfonic acid amide] | 1 to 5 | < 50
5 | Cc1cc(S(C)(=O)=O)ncc1N1CCc2[nH]c(C3CCCCC3)cc2C1 [Example 72, 2-Cyclohexyl-5-(4-methyl-6-methylsulfonyl-pyridin-3-yl)-4,5,6,7-tetrahydro-1H-pyrrolo[3,2-c]pyridine] | < 0.5 | > 70
6 | Cc1cc(S(=O)(=O)N(C)C2CC2)ccc1N1CCc2[nH]c(-c3c(F)cccc3F)cc2C1 [Example 120, N-Cyclopropyl-4-[2-(2,6-difluoro-phenyl)-4,5,6,7-tetrahydro-1H-pyrrolo[3,2-c]pyridin-5-yl]-N,3-dimethyl-benzenesulfonic acid amide] | 1 to 5 | < 50
7 | Cc1cc(CS(C)(=O)=O)ncc1N1CCc2[nH]c(-c3c(F)cccc3F)cc2C1 [Example 104, 2-(2,6-Difluoro-phenyl)-5-[4-methyl-6-(methylsulfonyl-methyl)-pyridin-3-yl]-4,5,6,7-tetrahydro-1H-pyrrolo[3,2-c]pyridine] | 1 to 5 | > 70
8 | Cn1nc(C(F)(F)F)cc1N1CCc2[nH]c(-c3c(F)cccc3F)cc2C1 [Example 19, 2-(2,6-Difluoro-phenyl)-5-[2-methyl-5-(trifluoromethyl)-2H-pyrazol-3-yl]-4,5,6,7-tetrahydro-1H-pyrrolo[3,2-c]pyridine] | < 0.5 | > 70
9 | Cc1cc([S+](C)[O-])ccc1N1CCc2[nH]c(-c3c(F)cccc3F)cc2C1 (stereo not shown) [Example 87, 2-(2,6-Difluoro-phenyl)-5-[2-methyl-4-(methylsulfinyl)-phenyl]-4,5,6,7-tetrahydro-1H-pyrrolo[3,2-c]pyridine] | 1 to 5 | > 70
10 | Cc1cc(S(C)(=O)=O)ncc1N1CCc2[nH]c(-c3ccncc3F)cc2C1 [Example 90, 2-(3-Fluoro-pyridin-4-yl)-5-(4-methyl-6-methylsulfonyl-pyridin-3-yl)-4,5,6,7-tetrahydro-1H-pyrrolo[3,2-c]pyridine] | 1 to 5 | > 70
11 | CCCCc1cc2c([nH]1)CCN(c1cnc(S(C)(=O)=O)cc1C)C2 [Example 74, 2-Butyl-5-(4-methyl-6-methylsulfonyl-pyridin-3-yl)-4,5,6,7-tetrahydro-1H-pyrrolo[3,2-c]pyridine] | 1 to 5 | > 70
12 | CCn1nc(C2(C(F)(F)F)CC2)cc1N1CCc2[nH]c(-c3c(F)cccc3F)cc2C1 [Example 124, 2-(2,6-Difluoro-phenyl)-5-[2-ethyl-5-[1-(trifluoromethyl)-cyclopropyl]-2H-pyrazol-3-yl]-4,5,6,7-tetrahydro-1H-pyrrolo[3,2-c]pyridine] | < 0.5 | < 50
13 | Cc1cc(Cl)ncc1N1CCc2[nH]c(-c3c(F)cccc3F)cc2C1 [Example 4, 5-(6-Chloro-4-methyl-pyridin-3-yl)-2-(2,6-difluoro-phenyl)-4,5,6,7-tetrahydro-1H-pyrrolo[3,2-c]pyridine] | < 0.5 | > 70
14 | Cc1ccc(-c2nccs2)cc1N1CCc2[nH]c(-c3c(F)cccc3F)cc2C1 [Example 8, 2-[3-[2-(2,6-Difluoro-phenyl)-4,5,6,7-tetrahydro-1H-pyrrolo[3,2-c]pyridin-5-yl]-4-methyl-phenyl]-thiazole] | < 0.5 | > 70
15 | Cc1cc(C(F)(F)F)ncc1N1CCc2[nH]c(C3CCOCC3)cc2C1 [Example 93, 5-[4-Methyl-6-(trifluoromethyl)-pyridin-3-yl]-2-tetrahydro-pyran-4-yl-4,5,6,7-tetrahydro-1H-pyrrolo[3,2-c]pyridine] | 1 to 5 | > 70
16 | Cc1cc(S(C)(=O)=O)ncc1N1CCc2[nH]c(-c3ccncc3Cl)cc2C1 [Example 108, 2-(3-Chloro-pyridin-4-yl)-5-(4-methyl-6-methylsulfonyl-pyridin-3-yl)-4,5,6,7-tetrahydro-1H-pyrrolo[3,2-c]pyridine] | 0.5 to 1 | < 50
17 | COCc1ccc(N2CCc3[nH]c(-c4c(F)cccc4F)cc3C2)c(C)c1 [Example 105, 2-(2,6-Difluoro-phenyl)-5-[4-(methoxymethyl)-2-methyl-phenyl]-4,5,6,7-tetrahydro-1H-pyrrolo[3,2-c]pyridine] | 0.5 to 1 | > 70
18 | CCNS(=O)(=O)c1ccc(N2CCc3[nH]c(-c4c(F)cccc4F)cc3C2)c(C)c1 [Example 131, 4-[2-(2,6-Difluoro-phenyl)-4,5,6,7-tetrahydro-1H-pyrrolo[3,2-c]pyridin-5-yl]-N-ethyl-3-methyl-benzenesulfonic acid amide] | 1 to 5 | < 50
19 | Cc1cc(C)c(-c2cc3c([nH]2)CCN(c2cnc(C(F)(F)F)cc2C)C3)cn1 [Example 135, 2-(4,6-Dimethyl-pyridin-3-yl)-5-[4-methyl-6-(trifluoromethyl)-pyridin-3-yl]-4,5,6,7-tetrahydro-1H-pyrrolo[3,2-c]pyridine] | 0.5 to 1 | < 50
20 | CNS(=O)(=O)c1ccc(N2CCc3[nH]c(-c4cnc(C)cc4C)cc3C2)c(C)c1 [Example 127, 4-[2-(4,6-Dimethyl-pyridin-3-yl)-4,5,6,7-tetrahydro-1H-pyrrolo[3,2-c]pyridin-5-yl]-N,3-dimethyl-benzenesulfonic acid amide] | 1 to 5 | > 70
21 | Cc1cc(S(C)(=O)=O)ncc1N1CCc2[nH]c(C3CCC(F)(F)CC3)cc2C1 [Example 122, 2-(4,4-Difluoro-cyclohexyl)-5-(4-methyl-6-methylsulfonyl-pyridin-3-yl)-4,5,6,7-tetrahydro-1H-pyrrolo[3,2-c]pyridine] | 1 to 5 | 50 to 70
22 | COc1cc(OC(F)F)ncc1N1CCc2[nH]c(-c3c(F)cccc3F)cc2C1 [Example 140, 5-[6-(Difluoro-methoxy)-4-methoxy-pyridin-3-yl]-2-(2,6-difluoro-phenyl)-4,5,6,7-tetrahydro-1H-pyrrolo[3,2-c]pyridine] | < 0.5 | > 70
23 | COc1ccc(OC)c(N2CCc3[nH]c(-c4c(F)cccc4F)cc3C2)c1 [Example 21, 2-(2,6-Difluoro-phenyl)-5-(2,5-dimethoxyphenyl)-4,5,6,7-tetrahydro-1H-pyrrolo[3,2-c]pyridine] | 1 to 5 | > 70
24 | Cc1nc(N2CCc3[nH]c(-c4c(F)cccc4F)cc3C2)ccc1Br [Example 25, 5-(5-Bromo-6-methyl-pyridin-2-yl)-2-(2,6-difluoro-phenyl)-4,5,6,7-tetrahydro-1H-pyrrolo[3,2-c]pyridine] | 1 to 5 | < 50
25 | Cc1cc(C#N)cnc1N1CCc2[nH]c(-c3c(F)cccc3F)cc2C1 [Example 68, 6-[2-(2,6-Difluoro-phenyl)-4,5,6,7-tetrahydro-1H-pyrrolo[3,2-c]pyridin-5-yl]-5-methyl-nicotinonitrile] | < 0.5 | > 70
26 | Cc1sc(-c2ccn(C)n2)nc1N1CCc2[nH]c(-c3c(F)cccc3F)cc2C1 [Example 99, 4-[2-(2,6-Difluoro-phenyl)-4,5,6,7-tetrahydro-1H-pyrrolo[3,2-c]pyridin-5-yl]-5-methyl-2-(1-methyl-1H-pyrazol-3-yl)-thiazole] | < 0.5 | > 70
27 | Cc1cc(C2CC2)ncc1N1CCc2[nH]c(-c3c(F)cccc3F)cc2C1 [Example 75, 5-(6-Cyclopropyl-4-methyl-pyridin-3-yl)-2-(2,6-difluoro-phenyl)-4,5,6,7-tetrahydro-1H-pyrrolo[3,2-c]pyridine] | 1 to 5 | > 70
28 | COc1cc(S(C)(=O)=O)ccc1N1CCc2[nH]c(-c3c(F)cccc3F)cc2C1 [Example 28, 2-(2,6-Difluoro-phenyl)-5-(2-methoxy-4-methylsulfonyl-phenyl)-4,5,6,7-tetrahydro-1H-pyrrolo[3,2-c]pyridine] | 0.5 to 1 | > 70
29 | CCOc1cc(C(F)(F)F)ncc1N1CCc2[nH]c(-c3c(F)cccc3F)cc2C1 [Example 116, 2-(2,6-Difluoro-phenyl)-5-[4-ethoxy-6-(trifluoromethyl)-pyridin-3-yl]-4,5,6,7-tetrahydro-1H-pyrrolo[3,2-c]pyridine] | < 0.5 | > 70

— US20160151337A1, “ANNELATED PYRROLES AND THEIR USE AS CRAC INHIBITORS” (Grünenthal GmbH, priority 2013, published 2016)
